This is an account of results in patent US11091749B2, “Deimmunized lysostaphin and methods of use” (TRUSTEES OF DARTMOUTH COLLEGE, priority 2014, dated 2021).

Holding throughout (assay): MHC II competition binding assay
Experiment [1] addresses T1, DRB1*0301 (Homo sapiens, UniProt P01903+P01911, A100K/A102G/A103R/A169T/F55Y/I96L/K41T/L162R/M171V/P40S/Q125H/Q178H/Q39Y/R42S/S66N/T106N/T262R/W38E/Y61H).
T1 construct: purchased Benaroya Research Institute (Seattle, Wash.)
Here is the method: (§1) MHC Binding Assays. MHC II competition binding assays were performed using a 384-well high throughput assay as previously described (Salvat, et al. (2014) supra). Binding assays were performed for the eight alleles: DRB1*0101, 0301, 0401, 0701, 0801, 1101, 1301, and 1501. Briefly, 100 nM biotinylated control peptides composed of known peptide antigens for each MHC II allele were incubated in polypropylene 384-well plates with 50 nM purified recombinant MHC II protein and serial dilutions of LST or variant peptide fragments (100 μM to 10 nM). Peptide-MHC II complexes were captured from equilibrated solutions using the conformation specific anti-HLA-DR antibody L243 coated on high binding ELISA plates. Bound control peptide was quantified using the DELFIA streptavidin-Europium conjugate and time resolved fluorescence (SpectraMax Gemini Fluorescence Microplate Reader).

For experiment [2], the target named is DRB1*1301 (Homo sapiens, UniProt P01903+P01911, A100E/A169T/K41T/L162R/M171V/P40S/Q125H/Q178H/Q39Y/Q99D/R42S/S66N/T262R/W38E/Y61H). Here is the method:
as §1

The target of experiment [3] is T2, DRB1*0401 (Homo sapiens, UniProt P01903+P01911, A100K/A169T/F76Y/I96L/K127E/L162R/M171V/N62H/P40V/Q125Y/R42H/S133A/S149N/S66Y/V115G/V209L/W38E).
T2 construct: purchased Benaroya Research Institute (Seattle, Wash.)
Here is the method:
as §1

Experiment [4] deals with T3, DRB1*0101 (Homo sapiens, UniProt P01903+P01911, A100R/D57E/F55L/F60I/F76Y/I96L/L162R/M171V/P40L/Q125E/R42F/V115G/Y59C).
T3 construct: purchased Benaroya Research Institute (Seattle, Wash.)
Here is the method: as §1

The target in experiment [5] is DRB1*0701 (Homo sapiens, UniProt P01903+P01911, A100R/A102G/A103Q/D57E/D86V/E43K/F76Y/K127E/L162R/M171V/P40G/Q125H/Q99D/R33Q/R42Y/R54Q/S133A/S66F/T210M/V115G/Y107V/Y59L/Y89S). Here is the method:
as §1

In experiment [6] the target is DRB1*0801 (Homo sapiens, UniProt P01903+P01911, A100R/A103L/A169T/D86S/F76Y/H45Y/I96F/K41T/L162R/M171V/P40S/Q125H/Q178H/Q39Y/Q99D/R218S/R42G/S66Y/V115G/W38E). Here is the method:
as §1

The target in experiment [7] is DRB1*1101 (Homo sapiens, UniProt P01903+P01911, A100R/A169T/A87E/I96F/K41T/L162R/M171V/P40S/Q125H/Q178H/Q39Y/Q99D/R42S/S66Y/T262R/V115G/W38E). Here is the method:
as §1

Experiment [8] concerns the target T4, DRB1*1501 (Homo sapiens, UniProt P01903+P01911).
T4 construct: purchased Benaroya Research Institute (Seattle, Wash.)
Here is the method: as §1, with “MHC II competition binding assays were performed using a 384-well high throughput assay as previously described (Salvat, et al. (2014) supra). Binding assays were performed for the eight alleles: DRB1*0101, 0301, 0401, 0701, 0801, 1101, 1301, and 1501.” left out

Like-named read-outs stand apart in the source and are kept apart here. Where no end group is shown, it is not given here.

Consider HLHFQTMVNSFSNPTAQ [Peptide R118T], for which the IC50 – broadly, the point on the concentration scale where inhibition reaches its midpoint – is 68.4 µM in experiment [1]; more than 250 µM in experiment [2]; less than 0.01 µM in experiment [3]; less than 0.01 µM in experiment [4]; 23.1 µM in experiment [5]; 57.7 µM in experiment [6]. Also, the IC50 in experiment [7] and in experiment [8] was less than 0.01 µM throughout.

With HLHFQRMVNDFSNPTAQ [Peptide S122D], the IC50 in experiment [1] is 9.42 µM; in experiment [2], more than 250 µM; in experiment [3] it was less than 0.01 µM; in experiment [4], less than 0.01 µM; in experiment [5], more than 250 µM; in experiment [6], 150 µM. For the same substance, the IC50 in experiment [7] and in experiment [8] was less than 0.01 µM throughout.

Regarding “Tyr93His/Lys95Glu/Ile99Gln: cluster 4 synthetic peptide with three mutations (Table 15) (DHVEAGQQIGWSGSTGY)”, the “binder class DRB1*0101” value in experiment [4] is on record as “weak or non-binder”. Moreover, in experiment [8], the “binder class DRB1*1501” value is “weak/non-binder”.

For “Leu83Met: full-length lysostaphin single point mutant”, the “binder class DRB1*0301” value in experiment [1] was “non-binder (All peptides above 10 μM were considered non-binders)”. Besides, the “binder class DRB1*1301” value in experiment [2] is recorded as “weak (weak if an IC50 value was in the 1-10 μM range)”. Moreover, in experiment [4], the “binder class DRB1*0101” value is “weak (weak if an IC50 value was in the 1-10 μM range)”. Moreover, in experiment [5], the “binder class DRB1*0701” value is “moderate (moderate if an IC50 value was in the 0.1-1 μM range)” and the “fold decrease in binding vs wild-type peptide, 0701” value is given as “two-fold”. In addition, in experiment [6], the “fold decrease in binding vs wild-type peptide, 0801” value was “approximately five-fold”. For the same substance, the “fold reduction in binding vs wild-type peptide, 1101” value in experiment [7] is listed as “ten-fold”. The “binder class DRB1*1501” value in experiment [8] was “moderate (moderate if an IC50 value was in the 0.1-1 μM range)”.

As for “Asn12Gly: full-length lysostaphin single point mutant”, in experiment [4], the “binder class DRB1*0101” value is on record as “strong (strong binder if an IC50 value of less than 0.1 μM was observed)”.

Regarding GVDFFMNEGTPVKAISSGKIV [Design 141E], the IC50 in experiment [1] (synthetic peptide competing with biotinylated control peptide, read-out: IC50 0301) is more than 250 µM; in experiment [6] (synthetic peptide competing with biotinylated control peptide, read-out: IC50 0801), more than 250 µM.

In the case of DYVEAGQIIGWSGSTGY [Peptide K95E], the IC50 in experiment [3], in experiment [4] and in experiment [8] was less than 0.01 µM throughout.

For HLHFQRMVNSFGNPTAQ [Peptide S124G], the IC50 in experiment [1] (DRB1*0301, read-out: IC50) was more than 250 µM; in experiment [2] (DRB1*1301, read-out: IC50), more than 250 µM; in experiment [4] (DRB1*0101, read-out: IC50), less than 0.01 µM; in experiment [6] (DRB1*0801, read-out: IC50) it was more than 250 µM; in experiment [8] (DRB1*1501, read-out: IC50), less than 0.01 µM.

Regarding HLHFQRMVNSFSNPTAQ [Design C5WT], the IC50 in experiment [1] (DRB1*0301, read-out: IC50) was more than 250 µM; in experiment [2] (DRB1*1301, read-out: IC50) it was more than 250 µM; in experiment [3] (DRB1*0401, read-out: IC50) it was 0.05 µM; in experiment [5] (DRB1*0701, read-out: IC50), 15.2 µM; in experiment [6] (DRB1*0801, read-out: IC50), 22 µM; in experiment [7] (DRB1*1101, read-out: IC50), less than 0.01 µM. In addition, in experiment [8] (DRB1*1501, read-out: IC50), the concentration for half-maximal inhibition (IC50) is less than 0.01 µM.

DHVEAGQQIGWSGSTGY [Peptide 939599]: the IC50 in experiment [1] (DRB1*0301, read-out: IC50) is more than 250 µM; in experiment [2] (DRB1*1301, read-out: IC50), more than 250 µM; in experiment [3] (DRB1*0401, read-out: IC50) it was more than 250 µM; in experiment [4] (DRB1*0101, read-out: IC50) it was more than 250 µM; in experiment [6] (DRB1*0801, read-out: IC50) it was more than 250 µM; in experiment [7] (DRB1*1101, read-out: IC50) it was more than 250 µM. For the same substance, the IC50 in experiment [8] (DRB1*1501, read-out: IC50) was more than 250 µM.

In the case of “Asn13His: full-length lysostaphin single point mutant”, the “binder class DRB1*1301” value in experiment [2] is given as “weak (weak if an IC50 value was in the 1-10 μM range)”.

For the substance “Tyr93His/Lys95Glu: cluster 4 synthetic peptide with Tyr93His and Lys95Glu (Table 15) (DHVEAGQIIGWSGSTGY)”, in experiment [4], the “binder class DRB1*0101” value is “moderate (moderate if an IC50 value was in the 0.1-1 μM range)”.
